Measurements: patent US10703756B2, “Pyrrolo[2,3-D]pyrimidinyl, pyrrolo[2,3-B]pyrazinyl, pyrrolo[2,3-B]pyridinyl acrylamides and epoxides thereof” (Pfizer Inc., priority 2015, dated 2020)
pIC50: −log10 of the molar value.

How the values were obtained:
JAK3 enzyme [1] = target: T1, JAK3 enzyme (Homo sapiens, UniProt P52333); test: JAK Caliper Enzyme Assay at 4 μM ATP; format: biochemical
T1 sequence (P52333 1-1124): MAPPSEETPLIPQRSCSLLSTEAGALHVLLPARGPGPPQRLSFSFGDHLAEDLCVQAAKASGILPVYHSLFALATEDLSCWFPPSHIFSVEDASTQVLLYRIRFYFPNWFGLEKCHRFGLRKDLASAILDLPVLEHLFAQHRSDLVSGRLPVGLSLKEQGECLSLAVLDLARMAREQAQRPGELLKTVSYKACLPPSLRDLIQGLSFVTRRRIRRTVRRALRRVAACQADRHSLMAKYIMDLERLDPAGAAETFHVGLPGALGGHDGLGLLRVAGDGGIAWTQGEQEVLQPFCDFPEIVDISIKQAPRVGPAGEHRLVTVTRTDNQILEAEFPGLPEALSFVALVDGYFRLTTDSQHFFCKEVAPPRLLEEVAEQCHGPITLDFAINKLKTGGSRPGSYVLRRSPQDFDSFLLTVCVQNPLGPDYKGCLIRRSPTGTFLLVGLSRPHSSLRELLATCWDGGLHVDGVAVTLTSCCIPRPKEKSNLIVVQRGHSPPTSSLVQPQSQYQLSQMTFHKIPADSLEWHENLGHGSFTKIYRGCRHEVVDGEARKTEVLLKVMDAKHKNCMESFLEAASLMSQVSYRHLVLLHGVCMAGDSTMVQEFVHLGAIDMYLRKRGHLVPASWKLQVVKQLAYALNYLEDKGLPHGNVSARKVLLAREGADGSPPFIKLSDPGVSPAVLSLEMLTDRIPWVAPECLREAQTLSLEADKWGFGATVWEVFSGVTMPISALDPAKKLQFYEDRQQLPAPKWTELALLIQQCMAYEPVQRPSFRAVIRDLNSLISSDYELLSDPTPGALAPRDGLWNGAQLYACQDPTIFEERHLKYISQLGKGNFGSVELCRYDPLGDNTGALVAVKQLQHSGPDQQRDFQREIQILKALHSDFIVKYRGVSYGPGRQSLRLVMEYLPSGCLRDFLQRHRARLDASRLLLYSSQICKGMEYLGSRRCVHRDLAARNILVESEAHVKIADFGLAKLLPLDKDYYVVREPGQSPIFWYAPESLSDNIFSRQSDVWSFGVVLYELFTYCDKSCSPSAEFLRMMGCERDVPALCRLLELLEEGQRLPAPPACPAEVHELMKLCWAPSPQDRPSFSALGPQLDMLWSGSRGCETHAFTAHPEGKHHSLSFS
In short: (§1)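 11-pt ½-log cpd titration in DMSO (top 600 μM, pre-assay); enzyme conc/incubation adjusted per prep → 20-30% peptide phosphorylation; phospho vs non-phospho peptide read by chip-based electrophoretic separation.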

[2] = test system: IL-15 induced P-STAT5 in human PBMC; test: PBMC IL-15 Induced P-STAT5; format: cell-based; conditions: human PBMC, IL-15 final 41 ng/mL; read-out: PBMC IL15_pSTAT5_IC50
In short: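 Thawed human PBMC, rested in human plasma, were preincubated 15 min at 37 °C with compound (0.2% DMSO), then stimulated 15 min with IL-15 at 41 ng/mL final. After paraformaldehyde fixation and methanol permeabilisation, Alexa Fluor 647 anti-STAT5 staining overnight at 4 °C was analysed by flow cytometry on total lymphocytes.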

[3] = test system: IL-15 induced STAT5 phosphorylation in human whole blood lymphocytes; test: HWB IL-15 Induced STAT5 Phosphorylation Assay; format: cell-based; conditions: Lymphocyte, IL-15 final 50 ng/ml, read-out: HWB_IL15 pSTAT5 IC50
Procedure: HWB IL-15 Induced STAT5 Phosphorylation Assay
After serial dilution of the test compounds 1:2 in DMSO at desired concentration (500× of final), the compounds were further diluted in PBS (by adding 4 μL compound/DMSO in 96 μL PBS, [DMSO]=4%, 20× final). To 96-well polypropylene plates were added 90 μl HWB (heparin treated Human Whole Blood)/well, followed by 5 μl/well 4% DMSO in D-PBS or various concentrations of 20× inhibitor in 4% DMSO in D-PBS (w/o Ca^+2 or Mg^+2) to give 1× in 0.2% DMSO. After mixing and incubating for 45 minutes at 37° C., 5 μl D-PBS (unstimulated control) or 20× stocks of 5 μl human IL-15 (final concentration is 50 ng/ml) were added, and mixed three times. After incubating 15 minutes at 37° C., 1× Lyse/Fix Buffer (BD Phosflow 5× Lyse/Fix Buffer) was added to all wells at 1000 μl/well, then incubated for 20 minutes at 37° C. and spun 5 mins at 1200 rpm. After washing in 1000 μl FACS buffer 1× and spinning for 5 mins at 1200 rpm, 400 μl ice cold Perm Buffer III were added to each well. After mixing gently (1-2×) and incubating on ice for 30 minutes, spinning for 5 mins at 1200 rpm without interruption, and washing 1× in cold […] FACS buffer (D-PBS containing 0.1% BSA and 0.1% sodium azide) 250 μl/well of the desired AlexaFluor647-conjugated anti-phospho STATS antibody at 1:125 dilution in FACS buffer was added. Following incubating at 4° C. over night, all the samples were transferred to 96-well polypropylene U-bottom plate, and checked by flow cytometry gated on total lymphocytes.

JAK3 enzyme [4] = target: T1, JAK3 enzyme; test: JAK Caliper Enzyme Assay at 1 mM ATP; format: biochemical
In short: as §1

[5] = Stability of JAK3 Covalent Inhibitors in Human Whole Blood; format: in vitro ADME; conditions: 1 μM test compound, 37° C., 180 min incubation; for half-life at 1 μM: both sexes, read-out: Human blood stability t1/2
In short: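 Compound at 1 μM final incubated in duplicate at 37° C for 180 min in fresh K2-EDTA whole blood […]. Samples quenched in acetonitrile with internal standard; LC-MS/MS peak area ratios gave % parent remaining over time.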

| Structure (SMILES) | pIC50 (JAK3 enzyme [1]) | pIC50 [2] | pIC50 [3] | pIC50 (JAK3 enzyme [4]) | half-life at 1 μM [5] | Human blood stability t1/2 [5] |
| --- | --- | --- | --- | --- | --- | --- |
| C=CC(=O)N1CCN(c2cnc3[nH]cc(C(=O)NC4CCCOC4)c3n2)CC1(C)C (racemic) [Example 149, Racemic-2-(4-acryloyl-3,3-dimethylpiperazin-1-yl)-N-(tetrahydro-2H-pyran-3-yl)-5H-pyrrolo[2,3-b]pyrazine-7-carboxamide] | 9.25 | 6.79 | 5.37 | 6.87 | – | – |
| C=CC(=O)N1CC[C@@H](Nc2cnc3[nH]cc(C(=O)NCC(C)CC(F)(F)F)c3n2)[C@@H](OC)C1 (mixture of isomers) [Example 269, Racemic-2-{[(3S,4R)-1-acryloyl-3-methoxypiperidin-4-yl]amino}-N-(4,4,4-trifluoro-2-methylbutyl)-5H-pyrrolo[2,3-b]pyrazine-7-carboxamide] | 9.05 | 6.66 | 5.86 | 7.09 | – | – |
| C=CC(=O)N1CCN(c2cnc3[nH]cc(C(=O)NCC(C)CC(F)(F)F)c3n2)CC1 (racemic) [Example 279, Racemic-2-(4-acryloylpiperazin-1-yl)-N-(4,4,4-trifluoro-2-methylbutyl)-5H-pyrrolo[2,3-b]pyrazine-7-carboxamide] | 9.46 | 6.97 | 6.12 | 7.51 | – | – |
| C=CC(=O)N1CCN(c2cnc3[nH]cc(C(=O)NC4CCCC4)c3n2)CC1 (racemic) [Example 292, Racemic-2-(4-acryloylpiperazin-1-yl)-N-cyclopentyl-5H-pyrrolo[2,3-b]pyrazine-7-carboxamide] | 9.50 | 7.56 | 6.08 | 7.77 | – | – |
| C=CC(=O)N1CC[C@@H](Nc2cnc3[nH]cc(C(=O)NC4CCCC4)c3n2)[C@@H](OC)C1 (racemic) [Example 299, Racemic-2-{[(3S,4R)-1-acryloyl-3-methoxypiperidin-4-yl]amino}-N-cyclopentyl-5H-pyrrolo[2,3-b]pyrazine-7-carboxamide] | 8.92 | 6.52 | 6.04 | 7.24 | – | – |
| C=CC(=O)N1CC[C@H](Oc2cnc3[nH]cc(C(=O)N[C@@H](C)COC)c3n2)C1 [Example 52, 2-{[(3S)-1-acryloylpyrrolidin-3-yl]oxy}-N-[(2S)-1-methoxypropan-2-yl]-5H-pyrrolo[2,3-b]pyrazine-7-carboxamide] | 8.99 | 6.20 | – | 6.82 | 2.78 h | – |
| C=CC(=O)N1CCC(N(C)c2cnc3[nH]cc(C(=O)NCC)c3n2)CC1 [Example 60, 2-[(1-acryloylpiperidin-4-yl)(methyl)amino]-N-ethyl-5H-pyrrolo[2,3-b]pyrazine-7-carboxamide] | 9.35 | 6.42 | – | 6.89 | 2.97 h | – |
| C=CC(=O)N1CC[C@@H](Oc2cnc3[nH]cc(C(=O)NCC)c3n2)C1 [Example 87, (R)-2-[(1-acryloylpyrrolidin-3-yl)oxy]-N-ethyl-5H-pyrrolo[2,3-b]pyrazine-7-carboxamide] | 7.85 | 5.19 | – | 5.88 | > 6 h | – |
| C=CC(=O)N1C[C@@H](O)C[C@@H](Nc2ncnc3[nH]cc(C#N)c23)C1 [Example 113, 4-{[(3R,5S)-1-Acryloyl-5-hydroxypiperidin-3-yl]amino}-7H-pyrrolo[2,3-d]pyrimidine-5-carbonitrile] | 8.62 | 5.71 | – | 6.23 | > 6 h | – |
| C=CC(=O)N1CCC(Oc2cnc3[nH]cc(-c4ncnn4C(C)C)c3n2)CC1 [Example 123] | 8.12 | 5.52 | – | 5.96 | 2.45 h | – |
| C=CC(=O)N1CCC(Oc2cnc3[nH]cc(-c4ncn(C(C)C)n4)c3n2)CC1 [Example 124, 1-[4-({7-[1-(Propan-2-yl)-1H-1,2,4-triazol-3-yl]-5H-pyrrolo[2,3-b]pyrazin-2-yl}oxy)piperidin-1-yl]prop-2-en-1-one] | 8.23 | 5.61 | – | 5.96 | 4.86 h | – |
| C=CC(=O)N1C[C@H](Nc2ncnc3[nH]ccc23)C[C@H](O)[C@@H]1C [Example 133] | 8.95 | 6.52 | – | 7.12 | – | 3.97 h |
| C=CC(=O)N1CCN(c2cnc3[nH]cc(C(=O)N[C@@H]4COC[C@@H]4C4CC4)c3n2)CC1(C)C [Example 139, 2-(4-acryloyl-3,3-dimethylpiperazin-1-yl)-N-[(3S,4R)-4-cyclopropyltetrahydrofuran-3-yl]-5H-pyrrolo[2,3-b]pyrazine-7-carboxamide] | 8.80 | 6.15 | – | 6.96 | > 6 h | – |
| C=CC(=O)N1CCC(Nc2cnc3[nH]cc(C(=O)NCc4ccc(F)c(OC)c4)c3n2)CC1 [Example 174, 2-[(1-acryloylpiperidin-4-yl)amino]-N-(4-fluoro-3-methoxybenzyl)-5H-pyrrolo[2,3-b]pyrazine-7-carboxamide] | 9.43 | 6.79 | 5.76 | 7.89 | – | – |
| C=CC(=O)N1CCC(Nc2cnc3[nH]cc(C(=O)NCc4cc(C(C)C)no4)c3n2)CC1 [Example 175, 2-[(1-acryloylpiperidin-4-yl)amino]-N-{[3-(propan-2-yl)-1,2-oxazol-5-yl]methyl}-5H-pyrrolo[2,3-b]pyrazine-7-carboxamide] | 9.37 | 7.11 | 5.88 | 8.10 | – | – |
| C=CC(=O)N1CC[C@H](Nc2cnc3[nH]cc(C(=O)NCC(F)(F)F)c3n2)C1 [Example 231, 2-{[(3S)-1-acryloylpyrrolidin-3-yl]amino}-N-(2,2,2-trifluoroethyl)-5H-pyrrolo[2,3-b]pyrazine-7-carboxamide] | 9.49 | 6.45 | – | 7.07 | 5.35 h | – |
| C=CC(=O)N1CC[C@H](Nc2cnc3[nH]cc(C(=O)NCCC(F)(F)F)c3n2)C1 [Example 235, 2-{[(3S)-1-acryloylpyrrolidin-3-yl]amino}-N-(3,3,3-trifluoropropyl)-5H-pyrrolo[2,3-b]pyrazine-7-carboxamide] | 9.52 | 6.68 | – | 7.43 | 5.78 h | – |
